Active and inactive are the calls of the source. The rule behind the calls is not given here.
How the values were obtained:
[1] = biological target: Histone acetyltransferase p300 (Homo sapiens, UniProt Q09472); experiment: EP300 DiscoverX BROMOscan
[2] = biological target: Protein polybromo-1 (Homo sapiens, UniProt Q86U86); experiment: PBRM1(5) DiscoverX BROMOscan
[3] = biological target: D(4) dopamine receptor (Homo sapiens, UniProt P21917); experiment: GPCRScan assay: inhibition of D4; design: radioligand conc. used [nm] 0.6 – 1.7, parental cells Stable HEK
[4] = biological target: T1, Bromodomain-containing protein 3 (Homo sapiens, UniProt Q15059); experiment: TR-FRET assay (BRD3 BD2)
[5] = biological target: Sigma intracellular receptor 2 (Homo sapiens) (UniProt Q5BJF2); conditions: Compound concentration 10.0 uM
[6] = biological target: T2, 5-hydroxytryptamine receptor 3A (Homo sapiens, UniProt P46098); experiment: GPCRScan assay: inhibition of 5-HT3; design: radioligand conc. used [nm] 1.0 – 2.0, parental cells HEKT
T2 sequence (P46098 whole entry): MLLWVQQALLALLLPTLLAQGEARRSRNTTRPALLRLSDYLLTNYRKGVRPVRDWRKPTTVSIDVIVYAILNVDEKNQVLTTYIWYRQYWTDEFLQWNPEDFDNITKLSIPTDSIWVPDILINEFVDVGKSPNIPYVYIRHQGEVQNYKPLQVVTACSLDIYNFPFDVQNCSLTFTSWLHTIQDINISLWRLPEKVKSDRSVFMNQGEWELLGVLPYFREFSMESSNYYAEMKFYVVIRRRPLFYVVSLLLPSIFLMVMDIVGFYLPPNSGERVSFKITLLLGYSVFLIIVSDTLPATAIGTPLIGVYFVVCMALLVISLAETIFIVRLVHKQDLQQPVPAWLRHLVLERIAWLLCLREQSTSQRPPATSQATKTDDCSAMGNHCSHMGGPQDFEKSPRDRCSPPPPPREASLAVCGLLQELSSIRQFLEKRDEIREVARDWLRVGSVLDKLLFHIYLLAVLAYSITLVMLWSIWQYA

[7] = biological target: T1, Bromodomain-containing protein 3; experiment: TR-FRET assay (BRD3 BD1)
[8] = biological target: 5-hydroxytryptamine receptor 2C (Homo sapiens) (UniProt P28335); conditions: Compound concentration 10.0 uM
[9] = biological target: Histone acetyltransferase KAT2B (Homo sapiens, UniProt Q92831); experiment: PCAF DiscoverX BROMOscan
[10] = biological target: T3, Bromodomain-containing protein 2 (Homo sapiens, UniProt P25440); experiment: BRD2(2) DiscoverX BROMOscan
[11] = biological target: Histamine H2 receptor (Homo sapiens) (UniProt P25021); conditions: Compound concentration 10.0 uM
[12] = biological target: 5-hydroxytryptamine receptor 1B (Homo sapiens, UniProt P28222); conditions: Compound concentration 10.0 uM
[13] = biological target: Voltage-gated inwardly rectifying potassium channel KCNH2 (Homo sapiens, UniProt Q12809); experiment: (§1) Cross screening panel
[14] = biological target: Sodium-dependent noradrenaline transporter (Homo sapiens, UniProt P23975); experiment: as §1
[15] = biological target: Substance-P receptor (Homo sapiens, UniProt P25103); experiment: as §1
[16] = biological target: 5-hydroxytryptamine receptor 2A (Homo sapiens, UniProt P28223); experiment: as §1
[17] = biological target: 3',5'-cyclic-AMP phosphodiesterase 4B (Homo sapiens, UniProt Q07343); experiment: as §1
[18] = biological target: Solute carrier organic anion transporter family member 1B1 (Homo sapiens, UniProt Q9Y6L6); experiment: as §1
[19] = biological target: Bromodomain and PHD finger-containing protein 3 (Homo sapiens, UniProt Q9ULD4); experiment: BRPF3 DiscoverX BROMOscan
[20] = biological target: 5-hydroxytryptamine receptor 5A (Homo sapiens) (UniProt P47898); conditions: Compound concentration 10.0 uM
[21] = biological target: D(4) dopamine receptor (Homo sapiens) (UniProt P21917); conditions: Compound concentration 10.0 uM
[22] = biological target: Transcription intermediary factor 1-alpha (Homo sapiens, UniProt O15164); experiment: TRIM24(PHD,Bromo.) DiscoverX BROMOscan
[23] = biological target: 5-hydroxytryptamine receptor 3A (Homo sapiens) (UniProt P46098); conditions: Compound concentration 10.0 uM
[24] = biological target: T3, Bromodomain-containing protein 2; experiment: BRD2 Bromoscan (DiscoverX)
[25] = biological target: Nucleosome-remodeling factor subunit BPTF (Homo sapiens, UniProt Q12830); experiment: FALZ DiscoverX BROMOscan
[26] = biological target: Transcription initiation factor TFIID subunit 1 (Homo sapiens, UniProt P21675); experiment: TAF1(2) DiscoverX BROMOscan
[27] = biological target: Alpha-2A adrenergic receptor (Homo sapiens) (UniProt P08913); conditions: Compound concentration 10.0 uM
[28] = biological target: 5-hydroxytryptamine receptor 7 (Homo sapiens) (UniProt P34969); conditions: Compound concentration 10.0 uM

T3 sequence (P25440 whole entry): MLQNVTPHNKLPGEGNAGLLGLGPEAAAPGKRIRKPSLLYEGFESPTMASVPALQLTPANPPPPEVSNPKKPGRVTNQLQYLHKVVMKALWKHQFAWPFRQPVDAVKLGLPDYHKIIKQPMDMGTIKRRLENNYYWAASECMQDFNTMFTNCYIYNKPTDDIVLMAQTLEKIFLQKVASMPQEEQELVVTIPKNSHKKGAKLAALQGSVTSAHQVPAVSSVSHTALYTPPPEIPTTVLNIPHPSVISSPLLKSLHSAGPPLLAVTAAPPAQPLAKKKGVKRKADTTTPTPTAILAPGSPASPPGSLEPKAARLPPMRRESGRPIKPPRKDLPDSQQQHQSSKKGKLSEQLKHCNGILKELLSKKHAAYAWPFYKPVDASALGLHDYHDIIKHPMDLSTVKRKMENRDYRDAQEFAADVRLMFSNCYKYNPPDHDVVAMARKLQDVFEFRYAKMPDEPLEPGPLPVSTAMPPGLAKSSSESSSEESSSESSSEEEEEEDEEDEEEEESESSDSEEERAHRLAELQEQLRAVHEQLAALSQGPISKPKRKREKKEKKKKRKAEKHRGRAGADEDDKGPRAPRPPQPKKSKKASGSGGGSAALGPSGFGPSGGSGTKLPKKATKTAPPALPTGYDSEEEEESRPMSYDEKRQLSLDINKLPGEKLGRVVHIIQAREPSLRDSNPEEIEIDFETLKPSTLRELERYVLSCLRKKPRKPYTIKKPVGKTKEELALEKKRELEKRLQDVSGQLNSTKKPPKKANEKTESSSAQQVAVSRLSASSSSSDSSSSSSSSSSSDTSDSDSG
5-hydroxytryptamine receptor 2A, sequence (P28223 whole entry): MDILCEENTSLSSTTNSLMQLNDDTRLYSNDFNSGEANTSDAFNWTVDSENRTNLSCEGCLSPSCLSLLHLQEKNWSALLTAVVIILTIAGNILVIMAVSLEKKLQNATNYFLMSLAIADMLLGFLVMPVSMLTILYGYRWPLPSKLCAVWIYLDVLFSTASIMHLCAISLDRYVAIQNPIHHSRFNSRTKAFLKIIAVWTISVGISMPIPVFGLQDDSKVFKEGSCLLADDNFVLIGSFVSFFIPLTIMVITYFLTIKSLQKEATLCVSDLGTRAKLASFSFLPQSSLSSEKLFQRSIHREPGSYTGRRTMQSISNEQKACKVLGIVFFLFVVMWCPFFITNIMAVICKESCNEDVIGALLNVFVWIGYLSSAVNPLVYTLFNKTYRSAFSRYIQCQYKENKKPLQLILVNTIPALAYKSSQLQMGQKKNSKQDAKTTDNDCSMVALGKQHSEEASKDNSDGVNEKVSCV
D(4) dopamine receptor, sequence (P21917 whole entry): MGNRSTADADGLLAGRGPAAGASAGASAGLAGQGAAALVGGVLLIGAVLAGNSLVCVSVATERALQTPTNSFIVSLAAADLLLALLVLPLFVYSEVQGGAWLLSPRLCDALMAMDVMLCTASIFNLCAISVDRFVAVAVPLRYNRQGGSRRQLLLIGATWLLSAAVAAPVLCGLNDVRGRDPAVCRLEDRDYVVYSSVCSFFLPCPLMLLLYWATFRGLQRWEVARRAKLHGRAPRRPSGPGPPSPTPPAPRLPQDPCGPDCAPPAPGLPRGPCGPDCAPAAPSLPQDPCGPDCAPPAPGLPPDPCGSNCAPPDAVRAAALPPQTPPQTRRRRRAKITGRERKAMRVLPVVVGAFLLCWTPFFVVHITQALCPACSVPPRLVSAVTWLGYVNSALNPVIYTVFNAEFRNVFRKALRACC
T1 sequence (Q15059 whole entry): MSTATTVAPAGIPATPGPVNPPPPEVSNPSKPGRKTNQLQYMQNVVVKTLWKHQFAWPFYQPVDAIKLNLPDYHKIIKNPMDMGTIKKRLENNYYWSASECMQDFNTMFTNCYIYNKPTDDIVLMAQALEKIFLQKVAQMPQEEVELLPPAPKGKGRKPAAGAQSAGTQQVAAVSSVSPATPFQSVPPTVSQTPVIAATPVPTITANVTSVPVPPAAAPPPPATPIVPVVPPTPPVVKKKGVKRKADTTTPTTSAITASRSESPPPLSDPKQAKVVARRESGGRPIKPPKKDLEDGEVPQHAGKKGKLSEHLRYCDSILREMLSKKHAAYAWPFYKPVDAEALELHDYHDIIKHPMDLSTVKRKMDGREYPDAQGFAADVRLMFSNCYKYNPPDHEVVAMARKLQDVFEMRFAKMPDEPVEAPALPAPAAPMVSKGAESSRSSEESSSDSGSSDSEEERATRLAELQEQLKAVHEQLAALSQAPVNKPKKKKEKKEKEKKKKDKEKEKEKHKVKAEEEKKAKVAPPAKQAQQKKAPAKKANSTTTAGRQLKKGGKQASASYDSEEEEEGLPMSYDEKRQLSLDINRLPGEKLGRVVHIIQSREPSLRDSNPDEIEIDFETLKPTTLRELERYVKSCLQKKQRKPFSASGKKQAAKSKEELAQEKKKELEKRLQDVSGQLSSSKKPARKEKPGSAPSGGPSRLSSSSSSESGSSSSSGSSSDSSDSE
Histone acetyltransferase p300, sequence (Q09472 whole entry): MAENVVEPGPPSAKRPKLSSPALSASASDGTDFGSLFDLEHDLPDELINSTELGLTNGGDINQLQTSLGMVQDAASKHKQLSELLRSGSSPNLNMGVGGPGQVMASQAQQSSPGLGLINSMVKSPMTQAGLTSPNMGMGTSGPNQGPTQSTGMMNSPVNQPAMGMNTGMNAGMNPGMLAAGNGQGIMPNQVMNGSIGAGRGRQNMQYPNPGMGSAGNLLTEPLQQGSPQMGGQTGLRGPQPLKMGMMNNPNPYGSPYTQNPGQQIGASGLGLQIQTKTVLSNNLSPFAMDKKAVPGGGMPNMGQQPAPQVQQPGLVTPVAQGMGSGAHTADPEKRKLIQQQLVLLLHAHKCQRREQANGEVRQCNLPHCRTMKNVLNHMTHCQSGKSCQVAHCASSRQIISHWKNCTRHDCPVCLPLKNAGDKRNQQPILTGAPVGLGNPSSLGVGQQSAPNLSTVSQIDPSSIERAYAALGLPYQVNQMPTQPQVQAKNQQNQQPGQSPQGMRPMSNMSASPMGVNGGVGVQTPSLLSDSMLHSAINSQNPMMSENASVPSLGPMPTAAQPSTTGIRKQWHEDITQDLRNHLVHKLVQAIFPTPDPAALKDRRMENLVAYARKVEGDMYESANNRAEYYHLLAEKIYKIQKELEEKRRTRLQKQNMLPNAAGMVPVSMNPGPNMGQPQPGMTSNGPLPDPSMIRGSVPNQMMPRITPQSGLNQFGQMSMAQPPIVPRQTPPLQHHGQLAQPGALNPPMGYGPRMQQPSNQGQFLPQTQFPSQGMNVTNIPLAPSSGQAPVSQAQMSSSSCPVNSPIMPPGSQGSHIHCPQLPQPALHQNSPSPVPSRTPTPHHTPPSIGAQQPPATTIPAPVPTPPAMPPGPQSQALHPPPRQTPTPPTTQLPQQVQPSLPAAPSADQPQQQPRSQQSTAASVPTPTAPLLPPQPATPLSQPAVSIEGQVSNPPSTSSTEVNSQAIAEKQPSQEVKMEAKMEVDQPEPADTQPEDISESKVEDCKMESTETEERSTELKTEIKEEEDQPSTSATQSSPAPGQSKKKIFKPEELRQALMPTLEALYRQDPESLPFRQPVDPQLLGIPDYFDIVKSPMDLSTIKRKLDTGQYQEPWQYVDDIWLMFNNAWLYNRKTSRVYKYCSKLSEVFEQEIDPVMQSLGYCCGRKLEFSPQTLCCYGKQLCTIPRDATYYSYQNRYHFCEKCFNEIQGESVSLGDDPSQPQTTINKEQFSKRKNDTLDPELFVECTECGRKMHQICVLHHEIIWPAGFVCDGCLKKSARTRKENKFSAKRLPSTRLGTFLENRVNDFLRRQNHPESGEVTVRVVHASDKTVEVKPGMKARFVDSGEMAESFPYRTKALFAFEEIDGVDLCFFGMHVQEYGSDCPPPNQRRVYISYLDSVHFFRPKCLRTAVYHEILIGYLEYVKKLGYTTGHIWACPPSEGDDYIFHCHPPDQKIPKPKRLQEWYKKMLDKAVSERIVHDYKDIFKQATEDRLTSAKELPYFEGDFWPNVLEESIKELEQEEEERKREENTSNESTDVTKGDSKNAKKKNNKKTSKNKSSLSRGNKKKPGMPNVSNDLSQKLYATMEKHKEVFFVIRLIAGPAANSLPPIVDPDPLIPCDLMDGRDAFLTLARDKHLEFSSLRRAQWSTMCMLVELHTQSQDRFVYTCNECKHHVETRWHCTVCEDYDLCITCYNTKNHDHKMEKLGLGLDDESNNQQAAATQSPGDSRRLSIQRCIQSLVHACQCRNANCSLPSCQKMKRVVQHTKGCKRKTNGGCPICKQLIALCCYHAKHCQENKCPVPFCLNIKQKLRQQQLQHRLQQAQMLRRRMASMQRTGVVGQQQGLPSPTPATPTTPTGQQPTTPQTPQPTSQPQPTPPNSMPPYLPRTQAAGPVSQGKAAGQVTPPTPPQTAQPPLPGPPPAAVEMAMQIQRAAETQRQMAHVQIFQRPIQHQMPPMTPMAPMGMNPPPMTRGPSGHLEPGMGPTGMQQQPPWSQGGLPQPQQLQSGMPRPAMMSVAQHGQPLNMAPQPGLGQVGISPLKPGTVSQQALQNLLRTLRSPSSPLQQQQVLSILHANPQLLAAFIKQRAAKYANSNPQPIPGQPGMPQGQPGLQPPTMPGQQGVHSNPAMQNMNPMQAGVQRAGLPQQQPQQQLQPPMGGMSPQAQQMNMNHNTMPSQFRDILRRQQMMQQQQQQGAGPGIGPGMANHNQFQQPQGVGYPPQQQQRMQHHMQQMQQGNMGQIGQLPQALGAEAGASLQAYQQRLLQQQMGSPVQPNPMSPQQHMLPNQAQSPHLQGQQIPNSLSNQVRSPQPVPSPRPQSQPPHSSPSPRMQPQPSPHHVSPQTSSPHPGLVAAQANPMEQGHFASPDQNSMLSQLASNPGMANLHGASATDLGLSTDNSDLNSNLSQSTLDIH
Sigma intracellular receptor 2 (Homo sapiens), sequence (Q5BJF2 whole entry): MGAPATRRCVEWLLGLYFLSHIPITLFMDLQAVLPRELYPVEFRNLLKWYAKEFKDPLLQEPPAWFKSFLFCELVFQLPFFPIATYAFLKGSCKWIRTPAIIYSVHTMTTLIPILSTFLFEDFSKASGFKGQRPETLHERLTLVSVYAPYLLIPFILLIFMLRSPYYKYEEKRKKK
D(4) dopamine receptor (Homo sapiens), sequence (P21917 whole entry): as the sequence (P21917 whole entry) above

## COCc1nc2cnc3cc(-c4c(C)noc4C)c(OC[C@H]4CCNC4)cc3c2n1[C@H](C)c1ccccc1 [GSK778]
[1]
  Kd: 5.7 µM
[2]
  Kd: 30 µM
[3]; read-out: Ki
  Ki: 0.857 µM
[3]; read-out: pKi (converted)
  Ki: 0.813 µM
[4]
  IC50: 1.21 µM (not active)
[5]
  inhibition: 23%
[6]
  Ki: 4.46 µM
[7]
  IC50: 0.041 µM (active)
[8]
  inhibition: -0.02%
[9]
  Kd: 33 µM
[10]
  Kd: 0.84 µM
[11]
  inhibition: 12.3%
[12]
  inhibition: 8.66%
[13]
  IC50: 39.8 µM
[14]
  IC50: 20 µM
[15]
  IC50: > 25.1 µM
[16]
  EC50: > 25.1 µM
  IC50: > 25.1 µM
[17]
  IC50: 39.8 µM
[18]
  IC50: 39.8 µM
[19]
  Kd: 30 µM
[20]
  inhibition: 21.5%
[21]
  inhibition: 79.5%
[22]
  Kd: 30 µM
[23]
  inhibition: 69.8%
[24]
  Kd: 0.013 µM (active)
[25]
  Kd: 30 µM
[26]
  Kd: 30 µM
[27]
  inhibition: 9.95%
[28]
  inhibition: -5.39%

Source: ChEMBL document CHEMBL4630907 (2021)
